Patent US10221162B2, “Triazole agonists of the APJ receptor” (priority 2015, dated 2019)
Where two headings read alike, the source gives them in different places.

Tests used:
[1] = system: isolated perfused rat hearts; experiment: Ex vivo isolated perfused rat heart (Langendorff) assay; conditions: percent change; for Isolated Heart Assay dP/dtmax (%): LV contractility; for Isolated Heart Assay dP/dtmin (%): LV relaxation
heart failure rat model = experiment: In vivo cardiac contractility in heart failure (MI) rat model; conditions: heart failure rats; for cardiac contractility as measured by dP/dt / MI Rat Model dP/dtmax (%): acute administration for 30 min; for cardiac contractility as measured by dP/dt: result in words
Experimental: Male Lewis rats (Charles River, USA) at 2-3 months of age were used for the study. […] APJ agonists were administered dose dependently acutely for a period of 30 min.
The interaction between […] (ACE2) and Apelin biology is complicated. To investigate the interaction between the Apelin-APJ and ACE signalling pathways, we examined the improvement in cardiac function with APJ small molecule agonists in the presence of ACE inhibitor captopril in heart failure rats in vivo.

human APJ receptor = human APJ receptor (Homo sapiens (Human), UniProt P35414); experiment: [35S]GTPγS binding assay (hAPJ SPA); type: biochemical
Chain of human APJ receptor (P35414 whole entry): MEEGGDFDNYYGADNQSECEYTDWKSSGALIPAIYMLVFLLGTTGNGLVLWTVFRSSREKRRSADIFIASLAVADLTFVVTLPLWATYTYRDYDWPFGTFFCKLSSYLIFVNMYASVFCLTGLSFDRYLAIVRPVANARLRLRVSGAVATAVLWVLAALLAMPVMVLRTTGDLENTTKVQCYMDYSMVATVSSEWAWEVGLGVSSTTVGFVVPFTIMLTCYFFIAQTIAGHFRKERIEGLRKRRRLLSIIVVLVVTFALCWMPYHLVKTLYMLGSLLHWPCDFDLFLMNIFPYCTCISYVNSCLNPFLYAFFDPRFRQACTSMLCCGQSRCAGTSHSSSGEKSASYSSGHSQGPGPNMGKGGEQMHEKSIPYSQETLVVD
Experimental: The human APJ receptor was cloned by polymerase chain reaction and the gene encoding the receptor was subcloned in pFLAG-CMV™-3 expression vector (Sigma, Saint Louis, Mo. USA) in-house at Amgen. A GTPγS binding assay was performed on membranes prepared from CHO cells stably expressing human APJ receptor. The optimum experimental conditions for the concentrations of GDP, MgCl2, and NaCl in the assay buffer were initially determined. The assay was performed in assay buffer [20 mM HEPES, pH 7.5, 5 mM MgCl2, and 0.1% (w/v) BSA with 200 mM NaCl, 3 μM GDP] and membranes expressing human APJ receptor/well along with WGA PS beads. The reaction was initiated by addition of 0.2 nM [^35S]GTPγS (Perkin Elmer Life and Analytical Sciences, Waltham USA) in the absence or presence of various ligands and incubated at RT for 90 min. […] All the results presented are means of several independent experiments and analyzed by non-linear regression methods using commercially available program Prism (GraphPad, San Diego, Calif.) to obtain EC50 detailed in Table 58.

[2] = membranes from CHO cells stably expressing human APJ receptor, [35S]GTPγS, read-out: Activity hAPJ SPA EC50 IP

COc1cccc(OC)c1-n1c(NS(=O)(=O)[C@@H](C)[C@H](OC)c2ncc(F)cn2)nnc1-c1cncc(C)c1 (single isomer, unassigned) [Example 242.0]
Isolated Heart Assay dP/dtmax (%) [1]: 5.0%
Isolated Heart Assay dP/dtmin (%) [1]: −2.7%

COc1cnc([C@H](O)[C@@H](C)S(=O)(=O)Nc2nnc(-c3cccnc3)n2-c2c(OC)cccc2OC)cn1 (single isomer, unassigned) [Example 706.0, (1S,2R)-N-(4-(2,6-dimethoxyphenyl)-5-(3-pyridinyl)-4H-1,2,4-triazol-3-yl)-1-hydroxy-1-(5-methoxy-2-pyrazinyl)-2-propanesulfonamide or (1R,2S)-N-(4-(2,6-dimethoxyphenyl)-5-(3-pyridinyl)-4H-1,2,4-triazol-3-yl)-1-hydroxy-1-(5-methoxy-2-pyrazinyl)-2-propanesulfonamide]
Isolated Heart Assay dP/dtmax (%) [1]: 9.1%
Isolated Heart Assay dP/dtmin (%) [1]: 4.0%

C[C@H](CS)C(=O)N1CCC[C@H]1C(=O)O [Captopril]
improvement in contractility or ejection fraction (heart failure rat model; captopril alone, acute settings): does not show a marked improvement in contractility or ejection fraction

COc1cccc(-c2nnc(NS(=O)(=O)[C@@H](C)[C@H](O)c3ccccc3OC)n2-c2c(OC)cccc2OC)n1 (single isomer, unassigned) [Example 325.0]
EC50 (human APJ receptor; [2]): 170 nM

CCOc1cccc(OC)c1-n1c(NS(=O)(=O)[C@@H](C)[C@H](OC)c2ncc(C)cn2)nnc1-c1cccc(OC)n1 (single isomer, unassigned) [Example 665.0, (1R,2S,P)—N-(4-(2-ethoxy-6-methoxyphenyl)-5-(6-methoxy-2-pyridinyl)-4H-1,2,4-triazol-3-yl)-1-methoxy-1-(5-methyl-2-pyrimidinyl)-2-propanesulfonamide or (1R,2S,M)-N-(4-(2-ethoxy-6-methoxyphenyl)-5-(6-methoxy-2-pyridinyl)-4H-1,2,4-triazol-3-yl)-1-methoxy-1-(5-methyl-2-pyrimidinyl)-2-propanesulfonamide]
EC50 (human APJ receptor; [2]): 3.9 nM

CCO[C@H](c1ncc(C)cn1)[C@H](C)S(=O)(=O)Nc1nnc(-c2cccnc2)n1-c1c(OC)cccc1OC [Example 109.0, (1R,2S)-N-(4-(2,6-dimethoxyphenyl)-5-(pyridin-3-yl)-4H-1,2,4-triazol-3-yl)-1-ethoxy-1-(5-methylpyrimidin-2-yl)propane-2-sulfonamide]
cardiac contractility as measured by dP/dt (heart failure rat model): increase in cardiac contractility

COc1cccc(-c2nnc(NS(=O)(=O)[C@@H](C)[C@H](O)c3ccccc3OC)n2-c2c(OC)cccc2OC)n1 (single isomer, unassigned) [Example 324.0]
EC50 (human APJ receptor; [2]): 14 nM

COc1cccc(-c2nnc(NS(=O)(=O)[C@@H](C)[C@H](O)c3ccccc3OC)n2-c2c(OC)cccc2OC)n1 (single isomer, unassigned) [Example 327.0]
EC50 (human APJ receptor; [2]): 2 nM

COc1cccc(-c2nnc(NS(=O)(=O)[C@@H](C)[C@H](O)c3ccccc3OC)n2-c2c(OC)cccc2OC)n1 (single isomer, unassigned) [Example 326.0]
EC50 (human APJ receptor; [2]): 22 nM

COc1cccc(OC)c1-n1c(NS(=O)(=O)[C@@H](C)[C@H](O)c2ncc(C)cn2)nnc1-c1cncc(C)c1 [Example 371.0, (1R,2S)—N-(4-(2,6-dimethoxyphenyl)-5-(5-methylpyridin-3-yl)-4H-1,2,4-triazol-3-yl)-1-hydroxy-1-(5-methylpyrimidin-2-yl)propane-2-sulfonamide]
cardiac contractility as measured by dP/dt (heart failure rat model): increase in cardiac contractility

COc1cccc(OC)c1-n1c(NS(=O)(=O)[C@@H](C)[C@H](C)c2ncc(C)cn2)nnc1-c1cccnc1 [Example 586.0, (2S,3R)—N-(4-(2,6-dimethoxyphenyl)-5-(3-pyridinyl)-4H-1,2,4-triazol-3-yl)-3-(5-methyl-2-pyrimidinyl)-2-butanesulfonamide]
cardiac contractility as measured by dP/dt (heart failure rat model): increase in cardiac contractility

COc1cccc(OC)c1-n1c(NS(=O)(=O)[C@H](C)[C@@H](OC)c2ccc(Cl)cn2)nnc1-c1cccnc1 (single isomer, unassigned) [Example 531.0, (1S,2R)-1-(5-chloro-2-pyridinyl)-N-(4-(2,6-dimethoxyphenyl)-5-(3-pyridinyl)-4H-1,2,4-triazol-3-yl)-1-methoxy-2-propanesulfonamide or (1R,2S)-1-(5-chloro-2-pyridinyl)-N-(4-(2,6-dimethoxyphenyl)-5-(3-pyridinyl)-4H-1,2,4-triazol-3-yl)-1-methoxy-2-propanesulfonamide]
Isolated Heart Assay dP/dtmax (%) [1]: 4.1%
Isolated Heart Assay dP/dtmin (%) [1]: 1.9%

COc1ncnc(OC)c1-n1c(NS(=O)(=O)[C@@H](C)[C@H](OC)c2ccc(Cl)cn2)nnc1-c1cccnc1 (single isomer, unassigned) [Example 711.0, (1R,2S)-1-(5-chloro-2-pyridinyl)-N-(4-(4,6-dimethoxy-5-pyrimidinyl)-5-(3-pyridinyl)-4H-1,2,4-triazol-3-yl)-1-methoxy-2-propanesulfonamide or (1S,2R)-1-(5-chloro-2-pyridinyl)-N-(4-(4,6-dimethoxy-5-pyrimidinyl)-5-(3-pyridinyl)-4H-1,2,4-triazol-3-yl)-1-methoxy-2-propanesulfonamide]
Isolated Heart Assay dP/dtmax (%) [1]: 9.4%
Isolated Heart Assay dP/dtmin (%) [1]: 1.1%

COc1cccc(OC)c1-n1c(NS(=O)(=O)[C@@H](C)[C@H](OC)c2ncc(F)cn2)nnc1-c1cccnc1 (single isomer, unassigned) [Example 244.0]
Isolated Heart Assay dP/dtmax (%) [1]: 14.0%
Isolated Heart Assay dP/dtmin (%) [1]: 15.0%

COc1cccc(OC)c1-n1c(NS(=O)(=O)[C@@H](C)[C@H](O)c2ccc(C#N)cc2)nnc1-c1cncc(C)c1.COc1cccc(OC)c1-n1c(NS(=O)(=O)[C@H](C)[C@@H](O)c2ccc(C#N)cc2)nnc1-c1cncc(C)c1 (mixture of isomers) [Example 247.0, (1R,2S)-1-(4-cyanophenyl)-N-(4-(2,6-dimethoxyphenyl)-5-(5-methyl-3-pyridinyl)-4H-1,2,4-triazol-3-yl)-1-hydroxy-2-propanesulfonamide and (1S,2R)-1-(4-cyanophenyl)-N-(4-(2,6-dimethoxyphenyl)-5-(5-methyl-3-pyridinyl)-4H-1,2,4-triazol-3-yl)-1-hydroxy-2-propanesulfonamide]
EC50 (human APJ receptor): 3.8 nM

COc1cccc(OC)c1-n1c(NS(=O)(=O)[C@@H](C)[C@H](C)c2ncc(F)cn2)nnc1-c1cccnc1 (single isomer, unassigned) [Example 184.0, (2R,3S)-N-(4-(2,6-dimethoxyphenyl)-5-(3-pyridinyl)-4H-1,2,4-triazol-3-yl)-3-(5-fluoro-2-pyrimidinyl)-2-butanesulfonamide or (2S,3R)-N-(4-(2,6-dimethoxyphenyl)-5-(3-pyridinyl)-4H-1,2,4-triazol-3-yl)-3-(5-fluoro-2-pyrimidinyl)-2-butanesulfonamide]
Isolated Heart Assay dP/dtmax (%) [1]: 14.5%
Isolated Heart Assay dP/dtmin (%) [1]: 14.0%

COc1cccc(-c2nnc(NS(=O)(=O)[C@@H](C)[C@H](OC)c3ncc(C)cn3)n2-c2c(OC)cccc2OC)n1 [Example 27.0, (1R,2S)—N-(4-(2,6-dimethoxyphenyl)-5-(6-methoxypyridin-2-yl)-4H-1,2,4-triazol-3-yl)-1-methoxy-1-(5-methylpyrimidin-2-yl)propane-2-sulfonamide]
cardiac contractility as measured by dP/dt (heart failure rat model): increase in cardiac contractility

COc1cccc(OC)c1-n1c(NS(=O)(=O)[C@H](C)[C@@H](OC)c2ncc(Cl)cn2)nnc1-c1cncc(C)c1 (single isomer, unassigned) [Example 557.0]
Isolated Heart Assay dP/dtmax (%) [1]: 17.0%
Isolated Heart Assay dP/dtmin (%) [1]: 20.0%
MI Rat Model dP/dtmax (%) (heart failure rat model): No effect

COc1cccc(OC)c1-n1c(NS(=O)(=O)[C@H](C)[C@@H](C)c2ncc(Cl)cn2)nnc1-c1cccnc1 (racemic) [Example 694.0, (2R,3S)-3-(5-chloropyrimidin-2-yl)-N-(4-(2,6-dimethoxyphenyl)-5-(pyridin-3-yl)-4H-1,2,4-triazol-3-yl)butane-2-sulfonamide or (2S,3R)-3-(5-chloropyrimidin-2-yl)-N-(4-(2,6-dimethoxyphenyl)-5-(pyridin-3-yl)-4H-1,2,4-triazol-3-yl)butane-2-sulfonamide]
Isolated Heart Assay dP/dtmax (%) [1]: 18.0%
Isolated Heart Assay dP/dtmin (%) [1]: 32.0%
MI Rat Model dP/dtmax (%) (heart failure rat model): 8%
